Source: patent US9617264B2, “2,7-diazaspiro[3.5]nonane compounds” (REMYND NV, priority 2014, dated 2017)

Key:
INS-1E cells = assay: Cytokine-induced apoptosis (caspase-3/7 activation, Caspase-Glo 3/7) in INS-1E rat insulinoma cells; assay type: cell-based; details: cytokine mix (IFN-γ, IL-1, TNF-α), 24 hours, caspase 3/7 activity, read-out: CYT EC50
Text: The INS-1E cell line, a rat insulinoma cell line, has been characterized extensively. INS-1E cells respond to glucose by secreting insulin and, unlike most other immortalized n-cell lines, they do this in a consistent manner over time. The cells are sensitive to hyperglycemia-, free fatty acid (FFA)-, and cytokine-induced stress. Prolonged stress ultimately leads to induction of apoptotic pathways and, if stress is not counter-acted, to apoptosis. Caspase-3 and -7 play a central role downstream where various apoptotic pathways merge. As such, activation (i.e. cleavage) of these caspases forms a relevant primary read-out to evaluate protective activity of compounds against stress-induced apoptosis.
To evaluate the efficacy of different compounds to prevent induction of apoptosis, an in vitro screen was developed in which INS-1E cells were exposed to a cytokine mix (IFN-γ, 5 ng/ml; IL-1, 20 pg/ml; TNF-α, 0.25 ng/ml). The degree of induction of apoptosis was evaluated using a substrate for cleaved caspase-3 and -7, i.e. a proluminescent caspase-3/7 DEVD aminoluciferin substrate with a thermostable luciferase (Caspase-Glo® 3/7 assay; Promega, cat. G8092).
On day 0, INS-1E cells were plated in a white-walled 96-well microplate (Greiner, cat. 655098) at 20,000 cells per well in 100 μl complete medium (RPMI containing 11 mM glucose supplemented with 5% FCS, 100 IU/ml penicillin, 100 μg/ml streptomycin, 10 mM HEPES, 1 mM Sodium Pyruvate and 50 μM 2-Mercapto-ethanol). On day 2, 100 μl medium containing cytokines and compound dissolved in DMSO was added to the cells. Wells without cytokines containing DMSO and wells with cytokines and DMSO were included to evaluate the degree of caspase 3/7 activation by the cytokine mix. After 24 hours exposure to cytokines and/or compound, Caspase-Glo® 3/7 reagent was added to the cells and caspase activity was determined by measuring luminescence.
To evaluate compound efficacy, the “toxicity window” was calculated by subtracting caspase activity of wells without stressor from activity of wells with stressor but without compound. The amount of caspase activity in the latter wells was normalized to 1 and used as reference. Subsequently, caspase activity in the wells with stressor and varying concentrations of compound was calculated relative to the wells without compound. Plotting caspase activity vs the log 10 of the concentration of compound permitted calculation of the EC50 values for the compounds which typically lied between 0.0001 and 10 μM. Compounds with an EC50<10 μM were considered active.

M17_3SYN cells = assay: Paraquat-induced cytotoxicity (LDH) in α-synuclein over-expressing M17_3SYN neuroblastoma cells; assay type: cell-based; details: Homo sapiens, Neuroblastoma cell, 48 h, 6 mM Paraquat, 2 days, LDH toxicity inhibition, read-out: SYN EC50
Text: A α-synuclein expression plasmid was constructed by subcloning the NcoI/XhoI fragment from 212T-SYN(WT) (Griffioen et al., Biochem Biophys Acta (2006) 1762(3):312-318) containing the cDNA of human wild type α-synuclein correspondingly into a standard mammalian expression vector pcDNA3.1 resulting in plasmid pcDNA3.1-SYNwt. Plasmids pcDNA3.1 and pcDNA3.1-SYNwt were transfected into human neuroblastoma cells (BE-M17; ATCC No. CRL-2267™) using lipofectamine reagent and subsequently, independent clonal cell lines with the plasmids stably integrated into the genome were selected by antibiotic resistance selection (Geneticin (G418)), resulting in cell lines M17.pcDNA3 and M17_3SYN. Overexpression of α-synuclein in the M17_3SYN cell line was confirmed by Western blot analysis.
Due to the high levels of α-synuclein, M17_3SYN cells were sensitive to paraquat, a well-known risk factor Parkinson's disease and of synuclein-dependent neuronal degeneration. Cytotoxicity of cells was measured by quantification of lactate dehydrogenase (LDH) levels. In dead cells, LDH leaked out of the cells into the medium due to a loss of plasma-membrane integrity.
Three days preceding the experiment, primary pre-cultures of M17.pcDNA3 (as possible control) and M17_3SYN cells were prepared, starting from a stock culture, at a density of 20.000-40.000 cells/cm2 in culture medium (Opti-MEM® Reduced Serum Medium with Phenol Red (Invitrogen, Cat. 31985-047) supplemented with 10% FCS, 1 mM sodium pyruvate, 1×NEAA, 500 μg/ml G418 and 0.5× antibiotic/antimycotic (ABAM)). 3 days later these primary pre-cultures were used as a starting point to make secondary pre-cultures at a density of 50.000-100.000 cells/cm^2. At the day of the experiment these secondary precultures were diluted to ˜0.5·10^6 cells/ml in detection medium (Opti-MEM® Reduced-Serum Medium without Phenol Red (Invitrogen, Cat. 11085-021) supplemented with 10% FCS, 1 mM sodium pyruvate, 1×NEAA, 500 μg/ml G418 and 0.5×ABAM) and 60 μL of this suspension was dispensed per well into a 96-well microtiter plate. After 3 hours of incubation at 37° C./5% CO2 an equal volume of detection medium containing a final concentration of 6 mM Paraquat was added and subsequently incubated for 2 days at 37° C./5% CO2. Then LDH activity was determined using the Promega Cytotox 96 Non-Radioactive cytotoxicity assay (Promega, Cat. G1780), according to the manufacturer's instructions. Cytotoxicity was defined as the ratio of LDH relative to the total LDH in the cells and supernatant.
The assay described above using the M17_3SYN cell line allowed screening compounds for their ability to decrease cytotoxicity in PQ-challenged cells. Compounds of the invention were tested for their ability to decrease toxicity at different concentrations, ranging from low non-effective concentrations to high effective concentrations. Afterwards, a dose-dependent inhibition curve was used to calculate the EC50. A compound was considered to be active in this test when it inhibited toxicity by more than 20% relative to untreated M17_3SYN cells at a concentration of […] or lower.

Row | SMILES | EC50 (INS-1E cells) [nM] | EC50 (M17_3SYN cells) [nM]
1 | COc1ccc(S(=O)(=O)N2CCC3(CC2)CN(S(=O)(=O)c2ccc(Cl)cc2)C3)cc1 [Cmpd005, 2-((4-Chlorophenyl)sulfonyl)-7-((4-methoxyphenyl)sulfonyl)-2,7-diazaspiro[3.5]nonane] | 20 | 6.4
2 | COc1ccc(S(=O)(=O)N2CCC3(CC2)CN(C(=O)C2(c4ccccc4)CC2)C3)cc1 [Cmpd014, (7-((4-Methoxyphenyl)sulfonyl)-2,7-diazaspiro[3.5]nonan-2-yl)(1-phenylcyclopropyl)methanone] | 34 | 56.8
3 | COc1ccc(S(=O)(=O)N2CCC3(CC2)CN(C(=O)C(C)(O)c2ccccn2)C3)cc1 (stereo not shown) [Cmpd018, 2-Hydroxy-1-(7-((4-methoxyphenyl)sulfonyl)-2,7-diazaspiro[3.5]nonan-2-yl)-2-(pyridin-2-yl)propan-1-one] | 58 | 241
4 | COc1ccc(C(C)C(=O)N2CC3(CCN(S(=O)(=O)c4ccc(OC)cc4)CC3)C2)cc1 (stereo not shown) [Cmpd019, 2-(4-Methoxyphenyl)-1-(7-((4-methoxyphenyl)sulfonyl)-2,7-diazaspiro[3.5]nonan-2-yl)propan-1-one] | 54 | 95.3
5 | COc1ccc(S(=O)(=O)N2CCC3(CC2)CN(C(=O)C(C)(C)c2ccccc2C)C3)cc1 [Cmpd020, 1-(7-((4-Methoxyphenyl)sulfonyl)-2,7-diazaspiro[3.5]nonan-2-yl)-2-methyl-2-(o-tolyl)propan-1-one] | 43 | 14.3
6 | COc1ccc(S(=O)(=O)N2CCC3(CC2)CN(C(=O)C(C)c2ccccc2OC)C3)cc1 (stereo not shown) [Cmpd023, 2-(2-Methoxyphenyl)-1-(7-((4-methoxyphenyl)sulfonyl)-2,7-diazaspiro[3.5]nonan-2-yl)propan-1-one] | 19 | 39
7 | COc1ccc(S(=O)(=O)N2CCC3(CC2)CN(C(=O)C(C)(C)c2ccccc2OC)C3)cc1 [Cmpd024, 2-(2-Methoxyphenyl)-1-(7-((4-methoxyphenyl)sulfonyl)-2,7-diazaspiro[3.5]nonan-2-yl)-2-methylpropan-1-one] | 63 | 81.5
8 | COc1ccc(S(=O)(=O)N2CCC3(CC2)CN(C(=O)C(C)c2ccc(Cl)cc2)C3)cc1 (stereo not shown) [Cmpd026, 2-(4-Chlorophenyl)-1-(7-((4-methoxyphenyl)sulfonyl)-2,7-diazaspiro[3.5]nonan-2-yl)propan-1-one] | 88 | 131
9 | COc1ccc(S(=O)(=O)N2CCC3(CC2)CN(C(=O)C(C)(C)c2ccc(Cl)cc2)C3)cc1 [Cmpd027, 2-(4-Chlorophenyl)-1-(7-((4-methoxyphenyl)sulfonyl)-2,7-diazaspiro[3.5]nonan-2-yl)-2-methylpropan-1-one] | 181 | 14.8
10 | COc1ccc(S(=O)(=O)N2CCC3(CC2)CN(C(=O)C2(c4ccccc4)CCCC2)C3)cc1 [Cmpd028, (7-((4-Methoxyphenyl)sulfonyl)-2,7-diazaspiro[3.5]nonan-2-yl)(1-phenylcyclopentyl)methanone] | 29 | 22
11 | COc1ccc(S(=O)(=O)N2CCC3(CC2)CN(C(=O)C(C)(C)c2cccc(Cl)c2)C3)cc1 [Cmpd030, 2-(3-Chlorophenyl)-1-(7-((4-methoxyphenyl)sulfonyl)-2,7-diazaspiro[3.5]nonan-2-yl)-2-methylpropan-1-one] | 134 | 5
12 | CC(=O)Nc1ccc(S(=O)(=O)N2CCC3(CC2)CN(c2nc(Cc4ccc(F)cc4)ns2)C3)cc1 [Cmpd058, N-(4-((2-(3-(4-fluorobenzyl)-1,2,4-thiadiazol-5-yl)-2,7-diazaspiro[3.5]nonan-7-yl)sulfonyl)phenyl)acetamide] | 22 | 290

More lines, in order of falling EC50 (INS-1E cells), values ahead:

Row | EC50 (INS-1E cells) [nM] | SMILES | EC50 (M17_3SYN cells) [nM]
13 | 616 | COc1ccc(S(=O)(=O)N2CCC3(CC2)CN(C(=O)C2CCCc4ccccc42)C3)cc1 (stereo not shown) [Cmpd025, (7-((4-Methoxyphenyl)sulfonyl)-2,7-diazaspiro[3.5]nonan-2-yl)(1,2,3,4-tetrahydronaphthalen-1-yl)methanone] | 65.3
14 | 248 | CCC(C(=O)N1CC2(CCN(S(=O)(=O)c3ccc(OC)cc3)CC2)C1)c1ccccc1 (stereo not shown) [Cmpd011, 1-(7-((4-Methoxyphenyl)sulfonyl)-2,7-diazaspiro[3.5]nonan-2-yl)-2-phenylbutan-1-one] | 66.4
15 | 149 | COc1ccc(S(=O)(=O)N2CCC3(CC2)CN(c2nc(CC(F)(F)F)ns2)C3)cc1 [Cmpd031, 5-(7-((4-Methoxyphenyl)sulfonyl)-2,7-diazaspiro[3.5]nonan-2-yl)-3-(2,2,2-trifluoroethyl)-1,2,4-thiadiazole] | 121
16 | 108 | COc1ccc(S(=O)(=O)N2CCC3(CC2)CN(C(=O)[C@H](c2ccc(F)cc2)C(C)C)C3)cc1 [Cmpd022, (S)-2-(4-fluorophenyl)-1-(7-((4-methoxyphenyl)sulfonyl)-2,7-diazaspiro[3.5]nonan-2-yl)-3-methylbutan-1-one] | 28.7
17 | 57 | COc1ccc(S(=O)(=O)N2CCC3(CC2)CN(C(=O)C(C)c2cc(F)cc(F)c2)C3)cc1 (stereo not shown) [Cmpd029, 2-(3,5-Difluorophenyl)-1-(7-((4-methoxyphenyl)sulfonyl)-2,7-diazaspiro[3.5]nonan-2-yl)propan-1-one] | 189
18 | 34 | CS(=O)(=O)c1cccc(S(=O)(=O)N2CCC3(CC2)CN(c2nc(Cc4ccc(F)cc4)ns2)C3)c1 [Cmpd082, 3-(4-Fluorobenzyl)-5-(7-((3-(methylsulfonyl)phenyl)sulfonyl)-2,7-diazaspiro[3.5]nonan-2-yl)-1,2,4-thiadiazole] | 477
19 | 31 | COc1ccc(S(=O)(=O)N2CCC3(CC2)CN(C(=O)CCc2ccc(F)cc2)C3)cc1 [Cmpd015, 3-(4-Fluorophenyl)-1-(7-((4-methoxyphenyl)sulfonyl)-2,7-diazaspiro[3.5]nonan-2-yl)propan-1-one] | 535
20 | 18 | O=S(=O)(c1cccs1)N1CCC2(CC1)CN(c1nc(Cc3ccc(F)cc3)ns1)C2 [Cmpd092, 3-(4-Fluorobenzyl)-5-(7-(thiophen-2-ylsulfonyl)-2,7-diazaspiro[3.5]nonan-2-yl)-1,2,4-thiadiazole] | 615
